“Also recorded” adds a separate entry of the source.
What was measured:
[1] = system: transformed petunia plants containing pMON546 (Chimeric EPSP); test: Plant response to glyphosate spraying; assay type: in vivo; settings: 0.8 #/acre acid equivalent, isopropylamine salt, sprayed
Protocol: (§1) Four individual representative transgenic seedlings were selected, grown and tested in the testing procedure described below, along with four individual non-transformed (wild-type) petunia seedlings.
(§2) The plants were grown in a growth medium in a growth chamber at 26° C. with 12 hours of light per day. The plants were fertilized weekly with a soluble fertilizer and watered as needed. The plants were sprayed at a uniform and reproducible delivery rate of herbicide by use of an automated track sprayer. The glyphosate solution used was measured as pounds of glyphosate acid equivalents per acre, mixed as the glyphosate isopropylamine salt, with an ionic surfactant.
(§3) Four individual wild-type (non-transformed) petunia plants were selected for use as control plants. Four individual transformed plants containing the pMON546 vector were selected by kanamycin resistance as described by Horsch, et al. (1985).
(§4) The control plants and the transformed plants were sprayed with the isopropylamine salt of glyphosate at the application level listed in Table 2 below; the experimental results obtained are also summarized in Table 2.

[2] = system: control petunia plants (wildtype or control vector pMON505); test: Plant response to glyphosate spraying; assay type: in vivo; settings: 0.8 #/acre acid equivalent, isopropylamine salt, sprayed
Protocol: as §1, §2, §3, §4

[3] = system: petunia leaf disks transformed with pMON546 (CaMV35S/EPSP synthase gene); test: Leaf disk callus growth on glyphosate media; assay type: cell-based; settings: within 10 days
Protocol: (§5) Leaf disks with diameters of 6 mm (1/4 inch) were taken from surface-sterilized petunia leaves. They were cultivated on MS104 agar medium for 2 days to promote partial cell wall formation at the wound surfaces. They were then submerged in a culture of A. tumefaciens cells containing both pMON546 and GV3111-SE which had been grown overnight in Luria broth at 28° C., and shaken gently. The cells were removed from the bacterial suspension, blotted dry, and incubated upside down on filter paper placed over "nurse" cultures of tobacco cells, as described by Horsch (1980). After 2 or 3 days, the disks were transferred to petri dishes containing MS media with 500 μg/ml carbenicillin and 0. 0.1, 0.25, or 0.5 mM glyphosate (sodium salt), with no nurse cultures.
(§6) Control tissue was created using A. tumefaciens cells containing the helper plasmid pGV3111-SE and a different plant transformation vector, pMON505, which contained a T-DNA region with a NOS/NPTII/NOS kanamycin resistance gene and a NOS selectable marker gene identical to pMON546, but without the CaMV35S/EPSP synthase gene.

[4] = system: control petunia leaf disks (pMON505); test: Leaf disk callus growth on glyphosate media; assay type: cell-based; settings: within 10 days
Protocol: as §5, §6

[5] = system: bacteria harboring pMON342 or pMON9566 (double pL promoter, petunia EPSP synthase); test: Glyphosate tolerance of bacteria in growth media; assay type: cell-based, E. coli; settings: very high expression of the enzyme
Protocol: The double pL promoter used to express the petunia EPSP synthase in pMON342 and pMON9566 leads to a very high level of expression of the enzyme. The enzyme is present at such high concentration that bacteria harboring either of these plasmids are tolerant to very high levels of glyphosate ([…]) in growth media, even though the enzyme produced by pMON342 is the wild type form. […] A plasmid for identifying such a promoter was constructed as follows: pMON9544, the precursor to pMON342, was digested with BamHI to remove the pL promoters, and was recircularized by ligation resulting in pMON362. The EcoRI fragment of pMON9556 containing the 3'-cDNA portion of the petunia EPSPS cDNA was then inserted into the EcoRI site of this plasmid reconstituting the entire coding sequence. The resulting plasmid, pMON364 is identical to pMON342 except that there is no promoter 5' of the EPSP synthase coding sequence.

[6] = system: tobacco plants transformed with wild-type EPSP synthase gene; test: Relative effect of glyphosate spraying on transformed tobacco; assay type: in vivo, Nicotiana tobacam CV H425; settings: WT, 0 total kill, 10 no effect, best transformant
Excerpt: A culture of A. tumefaciens cells containing pMON567/pGV3111-SE was contacted with leaf disks taken from tobacco plants (Nicotiana tobacam CV H425) as described by Horsch (1985). The Agrobacterium cells inserted the variant EPSP synthase gene into the chromosomes of the plant cells. Plant cells resistant to kanamycin were selected and regenerated into differentiated plants by the procedure of Horsch (1985).
Progeny of these plants were propagated and grown to a rosette diameter of about 10 cm corresponding to a plant age of about four weeks. The plants were sprayed with glyphosate at levels corresponding to 0.4, 2.0 and 3.6 pounds acid equiv./acre. The effect of glyphosate on the transformed plants were scored at 7, 14 and 28 days. The effect was translated to a numerical scale of 0-10 in which 0 represents total kill and 10 is the normal, unsprayed plant. […] The values represent the best transformant for both wild-type EPSP synthase and glyphosate-tolerant EPSP synthase genes.

[7] = system: E. coli SR481 (aroA-) carrying pMON8105; test: Growth on minimal medium containing glyphosate; assay type: cell-based
Excerpt: Chromosomal DNA isolated from the E. coli strain SR20 (GM42 hfr, his-, dam3-) was digested completely with MboI. The MboI fragments were cloned into the BglII site of plasmid pMON9564. The BglII site is in a multilinker located upstream of the promoterless petunia EPSPS coding sequence which had been tailored for expression in E. coli. The ligation mixture was used to transform E. coli strain SR481, the aroA- variant lacking endogenous EPSPS activity. Forty-one colonies were obtained which contained MboI fragments with sufficient promoter activity to express the Petunia EPSPS cDNA, complementing the aroA defect in SR481 and supporting cell growth on minimal medium. The 41 colonies were streaked individually onto MOPS minimal medium containing glyphosate at 1, 5, 10, 15 and 20 μM concentrations. The amount of cell growth on increasing concentrations of glyphosate was used as a measure of the relative promoter strength of each MboI fragment expressing the petunia EPSPS coding sequence. To further characterize each of the MboI promoter fragments, plasmid miniprep DNA was prepared by the alkaline lysis method from each of the 41 colonies and was digested individually with EcoRI, BamHI, HindIII, ClaI and NcoI. Those restriction enzymes were chosen because they cut within, or flank the petunia EPSPS coding sequence and would be used for mobilizing mutagenized fragments. Therefore, ideal promoter fragments would not contain restriction sites for any of those enzymes. There were 8 MboI fragments with varying degrees of promoter activity which lacked restriction sites for the enzymes listed above. Two of them, pMON8105 and pMON8143, were selected for further characterization. Both plasmids complemented the aroA defect and supported the growth of SR481 on minimal medium containing up to 1 mM (pMON8105) and 20 mM (pMON8143) glyphosate.

[8] = 0.1 mM glyphosate (sodium salt)
[9] = 0.25 mM glyphosate (sodium salt)
[10] = 0.5 mM glyphosate (sodium salt)

With `O=C(O)CNCP(=O)(O)O` [glyphosate, N-phosphonomethylglycine] the “Visual Appearance” value [1] was “growing well; also recorded: healthy and viable”, the “Visual Appearance” value [2] was “completely dead; also recorded: killed” and the callus growth [3, 8] was “little detectable difference between the control disks and the transformed tissue”. For the same molecule, the callus growth [3, 9] was “substantial growth of transformed tissue”, the callus growth [3, 10] was “a significant number of calli grew” and the callus growth [4, 8] was “little detectable difference between the control disks and the transformed tissue”. The callus growth [4, 9] was “very little growth of callus”, the callus growth [4, 10] was “no callus growth” and the “level of glyphosate tolerated in growth media” value [5] was greater than 50 µM. For the same molecule, the “Relative Effect of Glyphosate” value ([6]; 0.4 pounds/Acre, day 7) was 6.0, the “Relative Effect of Glyphosate” value ([6]; 0.4 pounds/Acre, day 14) was 7.0 and the “Relative Effect of Glyphosate” value ([6]; 0.4 pounds/Acre, day 28) was 9.0. The “Relative Effect of Glyphosate” value ([6]; 2.0 pounds/Acre, day 7) was 5.0, the “Relative Effect of Glyphosate” value ([6]; 2.0 pounds/Acre, day 14) was 1.8 and the “Relative Effect of Glyphosate” value ([6]; 2.0 pounds/Acre, day 28) was 0.8. The “Relative Effect of Glyphosate” value ([6]; 3.6 pounds/Acre, day 7) was 5.0, the “Relative Effect of Glyphosate” value ([6]; 3.6 pounds/Acre, day 14) was 1.7 and the “Relative Effect of Glyphosate” value ([6]; 3.6 pounds/Acre, day 28) was 0.8. The “growth on 1 mM glyphosate” value ([7]; 1 mM glyphosate) was “could not support the growth” and the “glyphosate concentration up to which growth on minimal medium is supported” value ([7]; minimal medium) was “up to 1 mM”.

Source: US5310667A (priority 1989, dated 1994)
